Experimental data published in ChEMBL document CHEMBL4811216, “Chemotherapy for human schistosomiasis: how far have we come? What's new? Where do we go from here?” (RSC Med Chem, 2020).

Experiments:
Schistosoma mansoni [1] = assay: Antischistosomal activity against Schistosoma mansoni LE assessed as reduction in worm motor activity at 100 uM measured after 72 hrs relative to control; format: functional; set-up: scale not given: the % may be the effect or the level left
Schistosoma mansoni [2] = assay: Antischistosomal activity against Schistosoma mansoni LE assessed as worm mortality at 200 uM measured after 24 hrs relative to control; format: functional
Schistosoma mansoni [3] = assay: Schistosomicidal-activity against Schistosoma mansoni LE assessed as seperation of worm couples at 25 uM measured within 120 hrs relative to control; format: functional
Schistosoma mansoni [4] = assay: Schistosomicidal-activity against Schistosoma mansoni LE assessed as reduction in motor activity at 50 uM measured after 120 hrs relative to control; format: functional; set-up: scale not given: the % may be the effect or the level left
Schistosoma mansoni [5] = assay: Antischistosomal activity against Schistosoma mansoni Liberian assessed as worm death at 20 uM incubated for 72 hrs measured every 24 hrs by microscopic method relative to control; format: functional
Schistosoma mansoni [6] = assay: Antischistosomal activity against Schistosoma mansoni Liberian assessed as reduction in worm motor activity incubated for 72 hrs measured every 24 hrs by microscopic method relative to control; format: functional, organism-based
Schistosoma mansoni [7] = assay: Antischistosomal activity against Schistosoma mansoni Liberian assessed as reduction in egg production incubated for 72 hrs measured every 24 hrs; format: functional, organism-based
Schistosoma mansoni [8] = assay: Antischistosomal activity against Schistosoma mansoni incubated for 24 hrs by MTT assay; format: functional, organism-based
Schistosoma mansoni [9] = assay: Antischistosomal activity against Schistosoma mansoni assessed as worm death at <= 100 uM measured within 72 hrs relative to control; format: functional; details: dose microM <=100
Schistosoma mansoni [10] = assay: Antischistosomal activity against Schistosoma mansoni assessed as tegument damage at <=100 uM measured within 72 hrs relative to control; format: functional; details: dose microM <=100
Schistosoma mansoni [11] = assay: Antischistosomal activity against Schistosoma mansoni assessed as reduction in worm motor activity at <=100 uM measured within 72 hrs relative to control; format: functional; set-up: scale not given: the % may be the effect or the level left; details: dose microM <=100
Schistosoma mansoni [12] = assay: Antischistosomal activity against Schistosoma mansoni Liberian NTS at 10 uM measured after 24 hrs relative to control; format: functional
Schistosoma mansoni [13] = assay: Antischistosomal activity against juvenile Schistosoma mansoni BH infected in Balb/C mouse assessed as reduction in worm burden at 40 mg/kg, po administered at 21 days post infection and measured at 15 days post treatment relative to control; format: functional; set-up: scale not given: the % may be the effect or the level left; details: time 15 day
Schistosoma mansoni [14] = assay: Antischistosomal activity against adult Schistosoma mansoni BH infected in Balb/C mouse assessed as reduction in worm burden at 40 mg/kg, po administered at 45 days post infection and measured at 15 days post treatment relative to control; format: functional; set-up: scale not given: the % may be the effect or the level left; details: time 15 day
Schistosoma mansoni [15] = assay: Antischistosomal activity against adult Schistosoma mansoni BH assessed as tegument damage at 150 to 200 ug/ml incubated for 120 hrs measured every 24 hrs by light microscopy relative to control; format: functional; details: dose 150-200 µg/ml, at 150 to 200 µg/mL
Schistosoma mansoni [16] = assay: Antischistosomal activity against adult Schistosoma mansoni BH assessed as worm death at 150 to 200 ug/ml incubated for 120 hrs measured every 24 hrs by light microscopy relative to control; format: functional; details: dose 150-200 µg/ml, at 150 to 200 µg/mL
Schistosoma mansoni [17] = assay: Antischistosomal activity against adult Schistosoma mansoni BH assessed as reduction in motor activity at 150 to 200 ug/ml incubated for 120 hrs measured every 24 hrs by light microscopy relative to control; format: functional; set-up: scale not given: the % may be the effect or the level left; details: dose 150-200 µg/ml, at 150 to 200 µg/mL
Schistosoma mansoni [18] = assay: Antischistosomal activity against adult Schistosoma mansoni BH infected in Balb/C mouse assessed as reduction in number of eggs at 40 mg/kg, po administered at 45 days post infection and measured at 15 days post treatment relative to control; format: functional; set-up: scale not given: the % may be the effect or the level left; details: time 15 day

## COC(=O)/C=C/c1ccc2c(c1)[C@@H](C(=O)OC)[C@H](c1ccc(OC(C)=O)cc1)O2
Schistosoma mansoni [1]
  Activity: 100%
Schistosoma mansoni [2]
  Activity: 100%

## COc1cc([C@@H]2OC(=O)[C@@H]3[C@H]2C(=O)O[C@H]3c2ccc(O)c(OC)c2)ccc1O
Schistosoma mansoni [3]
  Activity: 25%
Schistosoma mansoni [4]
  Activity: 25%

## C[C@@H](N)CCCCCC/C=C\CCCCCCCCN
Schistosoma mansoni [5]
  mortality at 20 µM: 100%
Schistosoma mansoni [6]
  EC50: 8.8 µM
Schistosoma mansoni [7]
  EC50: 3.6 µM

## C/C=C/c1cc(OC)c2c(c1)C(C)C(c1ccc(O)c(OC)c1)O2 (stereo not drawn) [DEHRODIISOEUGENOL]
Schistosoma mansoni [8]
  IC50: 53.5 µM
Schistosoma mansoni [9]
  mortality: 100%
Schistosoma mansoni [10]
  Activity: 25%
Schistosoma mansoni [11]
  Activity: 100%

## Cn1cnc(C[C@H]2CCC(=O)[C@@H]2[C@H](O)c2ccccc2)c1
Schistosoma mansoni [12]
  Activity: 100%
Schistosoma mansoni [13]
  Activity: 50.2%
Schistosoma mansoni [14]
  Activity: 70%
Schistosoma mansoni [15]
  Activity: 100%
Schistosoma mansoni [16]
  mortality: 100%
Schistosoma mansoni [17]
  Activity: 100%
Schistosoma mansoni [18]
  Activity: 80%
